Data published in patent US7166598B2, “Piperazine derivatives” (Astellas Pharma Inc., priority 1998, dated 2007).

Row | SMILES | melting point
1 | COc1cc(C[C@@H]2CN(Cc3cnn(C)c3)CCN2C(=O)c2cc(C(F)(F)F)cc(C(F)(F)F)c2)ccc1F.Cl | 127 to 135 °C
2 | Cc1cc(C(=O)N2CCN(CCN3CCc4ncccc4C3)C[C@H]2Cc2ccc(Cl)cc2)cc(C(F)(F)F)c1.Cl.Cl.Cl | 102.5 to 110.4 °C
3 | COC[C@@H]1CN(CCN2CCN(C(=O)c3cc(C(F)(F)F)cc(C(F)(F)F)c3)[C@H](Cc3ccc(C)c(F)c3)C2)CCO1.Cl.Cl | 148 to 160 °C
4 | Cc1ccc(C[C@@H]2CN(Cc3cccnc3)CCN2C(=O)c2cc(C(F)(F)F)cc(C(F)(F)F)c2)cc1O.Cl.Cl | 110 to 130 °C
5 | COC[C@@H]1CN(CCN2CCN(C(=O)c3cc(C(F)(F)F)cc(C(F)(F)F)c3)[C@H](Cc3ccc(Cl)cc3)C2)CCO1.Cl.Cl | 90 to 120 °C
6 | C[C@@H]1CN(CCN2CCN(C(=O)c3cc(-c4ccncc4)cc(C(F)(F)F)c3)[C@H](Cc3ccc(C(F)(F)F)cc3)C2)C[C@H](C)O1.Cl.Cl.Cl | 135 to 145 °C
7 | COc1cc(C[C@@H]2CN(CCN3CCc4ncccc4C3)CCN2C(=O)c2cc(SC)cc(C(F)(F)F)c2)ccc1F.Cl.Cl.Cl | 143.3 to 147.5 °C
8 | COC[C@H]1CN(CCN2CCN(C(=O)c3cc(C(F)(F)F)cc(C(F)(F)F)c3)[C@H](Cc3ccc(C)c(O)c3)C2)CCO1.Cl.Cl | 225 to 235 °C
9 | Cl.Cl.O=C(c1cc(C(F)(F)F)cc(C(F)(F)F)c1)N1CCN(Cc2cccnc2)C[C@H]1Cc1ccc(F)cc1 | 130 to 137.3 °C
10 | COC[C@@H]1CN(CCCN2CCN(C(=O)c3cc(C(F)(F)F)cc(C(F)(F)F)c3)[C@H](Cc3ccc(C)c(O)c3)C2)CCO1.Cl.Cl | 150 to 170 °C
11 | COC[C@@H]1CN(CCN2CCN(C(=O)c3cc(OC)cc(C(F)(F)F)c3)[C@H](Cc3ccc(F)cc3)C2)CCO1.Cl.Cl | 109.5 to 119.2 °C
12 | Cc1ccc(C[C@@H]2CN(Cc3csc(N(C)C)n3)CCN2C(=O)c2cc(C(F)(F)F)cc(C(F)(F)F)c2)cc1O.Cl.Cl | 162 to 165 °C
13 | Cl.Cl.Cl.O=C(c1cc(C(F)(F)F)cc(C(F)(F)F)c1)N1CCN(CCN2CCc3ncccc3C2)C[C@H]1Cc1ccc(F)cc1 | 155.5 to 170.1 °C
14 | CC1(C)CN(CCN2CCN(C(=O)c3cc(C(F)(F)F)cc(C(F)(F)F)c3)[C@H](Cc3ccc(C(F)(F)F)cc3)C2)CCO1.Cl.Cl | 215 to 231 °C
15 | CNc1cc(C(=O)N2CCN(CCN3CCO[C@H](COC)C3)C[C@H]2Cc2ccc(C)c(O)c2)cc(C(F)(F)F)c1.Cl.Cl | 159 to 170 °C
16 | COC[C@@H]1CN(CCN2CCN(C(=O)c3cc(C(F)(F)F)cc(S(=O)(=O)N4CCCC4)c3)[C@H](Cc3ccc(C)c(O)c3)C2)CCO1.Cl.Cl | 125 to 177 °C
17 | CSc1cc(C(=O)N2CCN(CCN3C[C@@H](C)O[C@@H](C)C3)C[C@H]2Cc2ccc(Cl)cc2)cc(C(F)(F)F)c1.Cl.Cl | 138.4 to 142.5 °C
18 | COc1cc(C(=O)N2CCN(Cc3cnn(C)c3)C[C@H]2Cc2ccc(C(F)(F)F)cc2)cc(C(F)(F)F)c1.Cl | 218 to 223 °C
19 | CSc1cc(C(=O)N2CCN(CCN3CCc4ncccc4C3)C[C@H]2Cc2ccc(Cl)c(O)c2)cc(C(F)(F)F)c1.Cl.Cl.Cl | 169 to 178 °C
20 | COC[C@H]1CCC[C@@H](COC)N1CCN1CCN(C(=O)c2cc(C(F)(F)F)cc(C(F)(F)F)c2)[C@H](Cc2ccc(C(F)(F)F)cc2)C1.Cl.Cl | 147 to 151 °C

Row | SMILES | melting point
21 | COC[C@@H]1CN(CCN2CCN(C(=O)c3cc(C(F)(F)F)cc(C(F)(F)F)c3)[C@H](Cc3ccc(C(F)(F)F)cc3)C2)C[C@H](COC)O1.Cl.Cl | 130 to 138 °C
22 | Cc1ccc(C[C@@H]2CN(CCN3[C@H](C)COC[C@@H]3C)CCN2C(=O)c2cc(C(F)(F)F)cc(C(F)(F)F)c2)cc1O.Cl.Cl | 210 to 220 °C
23 | COc1cc(C(=O)N2CCN(Cc3cccnc3)C[C@H]2Cc2c[nH]c3ccccc23)cc(C(F)(F)F)c1.Cl.Cl | 190 to 200 °C
24 | Cl.Cl.O=C(c1cc(C(F)(F)F)cc(C(F)(F)F)c1)N1CCN(CCN2[C@H](CO)CCC[C@@H]2CO)C[C@H]1Cc1ccc(C(F)(F)F)cc1 | 164 to 167 °C
25 | C[C@@H]1CN(CCN2CCN(C(=O)c3cc([N+](=O)[O-])cc(C(F)(F)F)c3)[C@H](Cc3ccc(Cl)cc3)C2)C[C@H](C)O1.Cl.Cl | 133.3 to 136.2 °C
26 | COc1cc(C(=O)N2CCN(CCN3CCc4ncccc4C3)C[C@H]2Cc2ccc(Cl)c(O)c2)cc(C(F)(F)F)c1.Cl.Cl.Cl | 225 to 240 °C (dec.)
27 | COc1cc(C[C@@H]2CN(Cc3cccnc3)CCN2C(=O)c2cc(C(F)(F)F)cc(C(F)(F)F)c2)ccc1F.Cl.Cl | 143 to 147 °C
28 | Cl.Cl.O=C(c1cc(C(F)(F)F)cc(C(F)(F)F)c1)N1CCN(CCN2C[C@H](O)[C@@H](O)C2)C[C@H]1Cc1ccc(C(F)(F)F)cc1 | 154 to 159 °C
29 | Cl.Cl.O=C(c1cc(C(F)(F)F)cc(C(F)(F)F)c1)N1CCN(CCN2CCC[C@H]2CO)C[C@H]1Cc1ccc(C(F)(F)F)cc1 | 221 to 224 °C
30 | COC[C@@H]1CN(CCN2CCN(C(=O)c3cc(C(F)(F)F)cc(C(F)(F)F)c3)[C@H](Cc3ccc4ccccc4c3)C2)CCO1.Cl.Cl | 145 to 148 °C
31 | COc1cc(C(=O)N2CCN(CCCc3cccnc3)C[C@H]2Cc2ccc(Cl)cc2)cc(C(F)(F)F)c1.Cl.Cl | 60 to 100 °C
32 | Cl.Cl.Cl.O=C(c1cc(F)cc(C(F)(F)F)c1)N1CCN(CCN2CCc3ncccc3C2)C[C@H]1Cc1ccc(Cl)cc1 | 127.3 to 130.9 °C
33 | COc1cc(C[C@@H]2CN(CCN3CCc4ncccc4C3)CCN2C(=O)c2cc(-c3ccncc3)cc(C(F)(F)F)c2)ccc1F.Cl.Cl.Cl.Cl | 236.8 to 248.5 °C
34 | COC[C@@H]1CN(CCN2CCN(C(=O)c3cc(C(F)(F)F)cc(C(F)(F)F)c3)[C@H](Cc3ccc(C(C)C)c(O)c3)C2)CCO1.Cl.Cl | 218 to 228 °C
35 | C[C@@H]1CN(CCN2CCN(C(=O)c3cc(C(F)(F)F)cc(S(C)(=O)=O)c3)[C@H](Cc3ccc(Cl)cc3)C2)C[C@H](C)O1.Cl.Cl | 138.4 to 142.5 °C
36 | Cl.Cl.O=C(c1cc(C(F)(F)F)cc(C(F)(F)F)c1)N1CCN(CCN2CC3CCC(C2)O3)C[C@H]1Cc1ccc(C(F)(F)F)cc1 | 232 to 250 °C
37 | COc1cc(C(=O)N2CCN(CCN3C[C@@H](C)O[C@@H](C)C3)C[C@H]2Cc2c[nH]c3ccccc23)cc(C(F)(F)F)c1.Cl.Cl | 188 to 200 °C
38 | Cl.Cl.Cl.Cl.O=C(c1cc(-c2ccncc2)cc(C(F)(F)F)c1)N1CCN(CCN2CCc3ncccc3C2)C[C@H]1Cc1ccc(Cl)cc1 | 206 to 217 °C
39 | COC[C@@H]1CN(CCN2CCN(C(=O)c3cc(SC)cc(C(F)(F)F)c3)[C@H](Cc3ccc(F)c(OC)c3)C2)CCO1.Cl.Cl | 132 to 135 °C
40 | Cc1cc(C(=O)N2CCN(CCN3C[C@@H](C)O[C@@H](C)C3)C[C@H]2Cc2ccc(Cl)cc2)cc(C(F)(F)F)c1.Cl.Cl | 82.3 to 88.2 °C

Row | SMILES | melting point
41 | Cl.Cl.O=C(c1cc(C(F)(F)F)cc(C(F)(F)F)c1)N1CCN(CCCc2cccnc2)C[C@H]1Cc1ccc(F)c(O)c1 | 80 to 95 °C
42 | CS(=O)(=O)c1cc(C(=O)N2CCN(CCN3CCc4ncccc4C3)C[C@H]2Cc2ccc(Cl)cc2)cc(C(F)(F)F)c1.Cl.Cl.Cl | 198 to 213 °C
43 | CS(=O)(=O)c1cc(C(=O)N2CCN(CCN3CCc4ncccc4C3)C[C@H]2Cc2ccc(C(F)(F)F)cc2)cc(C(F)(F)F)c1.Cl.Cl.Cl | 192 to 197 °C
44 | COC[C@@H]1CN(CCN2CCN(C(=O)c3cc(C(F)(F)F)cc(C(F)(F)F)c3)C(Cc3ccc(C)c(O)c3)C2)C(C)(C)CO1.Cl.Cl (some centres unmarked) | 150 to 180 °C
45 | COC[C@H]1CN(CCN2CCN(C(=O)c3cc(C(F)(F)F)cc(C(F)(F)F)c3)[C@H](Cc3ccc(C(F)(F)F)cc3)C2)CCO1.Cl.Cl | 188 to 194 °C
46 | O=C(c1cc(C(F)(F)F)cc(C(F)(F)F)c1)N1CCN(CC#Cc2cccnc2)C[C@H]1Cc1ccc(C(F)(F)F)cc1 [Example 9-(53), (2R)-1-[3,5-Bis(trifluoromethyl)benzoyl]-4-[3-(3-pyridyl)-2-propynyl]-2-[4-(trifluoromethyl)benzyl]-piperazine] | 142 to 143 °C
47 | COC[C@@H]1CN(CCN2CCN(C(=O)c3cc(C(F)(F)F)cc(C(F)(F)F)c3)[C@H](Cc3ccc(C)c(N4CCCC4)c3)C2)CCO1.Cl.Cl.Cl | 160 to 165 °C
48 | COc1cc(C[C@@H]2CN(CCN3CCc4ncccc4C3)CCN2C(=O)c2cc(C(F)(F)F)cc(C(F)(F)F)c2)ccc1C(F)(F)F.Cl.Cl.Cl | 195 to 200 °C
49 | C[C@@H]1CN(CCN2CCN(C(=O)c3cc(C(F)(F)F)cc(C(F)(F)F)c3)[C@H](Cc3ccc(C(F)(F)F)cc3)C2)C[C@H](C)O1.Cl.Cl | 148 to 159 °C
50 | Cc1ccc(C[C@@H]2CN(CCN3[C@@H](C)COC[C@@H]3C)CCN2C(=O)c2cc(C(F)(F)F)cc(C(F)(F)F)c2)cc1O.Cl.Cl | 240 to 250 °C
51 | COC[C@@H]1CN(CCN2CCN(C(=O)c3cc(C(F)(F)F)cc(C(F)(F)F)c3)[C@H](Cc3ccc(C(F)(F)F)cc3)C2)[C@@H](C)CO1.Cl.Cl | 142 to 182 °C
52 | COC[C@H]1CN(CCN2CCN(C(=O)c3cc(C(F)(F)F)cc(C(F)(F)F)c3)[C@H](Cc3ccc(F)c(OC)c3)C2)CCO1.Cl.Cl | 139 to 148 °C
53 | COC[C@@H]1CN(CCN2CCN(C(=O)c3cc(SC)cc(C(F)(F)F)c3)[C@H](Cc3ccc(C(F)(F)F)cc3)C2)CCO1.Cl.Cl | 153 to 170 °C
54 | Cl.Cl.O=C(c1cc(C(F)(F)F)cc(C(F)(F)F)c1)N1CCN(Cc2cccnc2)C[C@H]1Cc1ccc(F)c(F)c1 | 203 to 208 °C
55 | COC[C@@H]1CN(CCN2CCN(C(=O)c3cc(Cl)cc(C(F)(F)F)c3)[C@H](Cc3ccc(C(F)(F)F)cc3)C2)CCO1.Cl.Cl | 168 to 173 °C
56 | COC[C@@H]1CN(CCN2CCN(C(=O)c3cc(OC)cc(C(F)(F)F)c3)[C@H](Cc3ccc(C(F)(F)F)cc3)C2)CCO1.Cl.Cl | 126 to 155 °C
57 | COC[C@@H]1CN(CCN2CCN(C(=O)c3cc(C(F)(F)F)cc(S(N)(=O)=O)c3)[C@H](Cc3ccc(C)c(O)c3)C2)CCO1.Cl.Cl | 166 to 206 °C
58 | COC[C@@H]1CN(CCN2CCN(C(=O)c3cc(OC)cc(C(F)(F)F)c3)[C@H](Cc3ccc(C(F)(F)F)c(OC)c3)C2)CCO1.Cl.Cl | 135 to 140 °C
59 | COC[C@@H]1CN(CCN2CCN(C(=O)c3cc(N(C)C)cc(C(F)(F)F)c3)[C@H](Cc3ccc(C)c(O)c3)C2)CCO1.Cl.Cl | 182 to 186 °C
